Ends that are not written are not given here.
Legend:
[1] = test system: reference strains Staphylococcus aureus ATCC 29213, Escherichia coli ATCC 25922, and Pseudomonas aeruginosa ATCC 27853; test: Antimicrobial susceptibility assay as in Example 1, organism not specified per result; assay type: cell-based
Description: Antibacterial susceptibility testing was performed using a microdilution broth assay according to the guidelines of the National Committee for Clinical Laboratory Standards (NCCLS) Document M7-A2 (NCCLS, 1990). For preparation of peptide stock solutions, the peptide powder as an acetate salt was weighed on an analytical balance and transferred to a polypropylene tube. Stock solutions were prepared at a concentration of 1.024 mg/mL (or, in the case of natural polyphemusin, 1.00 mg/mL) by dissolving the powder in autoclaved (121° C., 20 psi, 20 minutes) deionized water. […]
The bacteria used in the antimicrobial susceptibility testing are the quality control reference strains Staphylococcus aureus ATCC 29213, Escherichia coli ATCC 25922, and Pseudomonas aeruginosa ATCC 27853. Inoculum for each reference strain was prepared by taking a sample of bacteria from a 16-20 hour plate culture and inoculating into 5 mL of MHB (BBL® catalog number 95834) to an absorbance reading of approximately 0.02 at 600 nm (A600) on a Beckman DU®-64 spectrophotometer. The culture was incubated at 35°-37° C. with shaking in a New Brunswick incubator shaker (Model G25) and the growth monitored spectrophotometrically until it reached A600 of approximately 0.6; this absorbance represented approximately 1×10^8 colony-forming units per milliliter (CFUs/mL). […]
This value was determined using the unaided eye. […]

[2] = test system: Escherichia coli ATCC 25922; test: Microdilution broth antibacterial susceptibility assay (NCCLS M7-A2), MIC; assay type: cell-based; conditions: lowest concentration completely inhibiting growth; MHB, 16-20 hours, 35-37 C; tested in duplicate
Description: (§1) Antibacterial susceptibility testing was performed using a microdilution broth assay according to the guidelines of the National Committee for Clinical Laboratory Standards (NCCLS) Document M7-A2 (NCCLS, 1990). For preparation of peptide stock solutions, the peptide powder as an acetate salt was weighed on an analytical balance and transferred to a polypropylene tube. Stock solutions were prepared at a concentration of 1.024 mg/mL (or, in the case of natural polyphemusin, 1.00 mg/mL) by dissolving the powder in autoclaved (121° C., 20 psi, 20 minutes) deionized water. The peptide solution was used immediately, stored for up to ten days at 4° C., or stored longterm at -70° C. in 1 mL aliquotes in polypropylene cryovials. Mueller-Hinton broth (MHB)(BBL® catalog number 11443) was used in microtiter plates for diluting peptide stock solutions and for diluting each bacterial inoculum. MHB 5 mL prepared tubes (BBL® catalog number 95834) were used to culture an overnight plate of bacteria to the logarithmic phase of growth for inoculating the microtiter plates.
(§2) The bacteria used in the antimicrobial susceptibility testing are the quality control reference strains Staphylococcus aureus ATCC 29213, Escherichia coli ATCC 25922, and Pseudomonas aeruginosa ATCC 27853. Inoculum for each reference strain was prepared by taking a sample of bacteria from a 16-20 hour plate culture and inoculating into 5 mL of MHB (BBL® catalog number 95834) to an absorbance reading of approximately 0.02 at 600 nm (A600) on a Beckman DU®-64 spectrophotometer. The culture was incubated at 35°-37° C. with shaking in a New Brunswick incubator shaker (Model G25) and the growth monitored spectrophotometrically until it reached A600 of approximately 0.6; this absorbance represented approximately 1×10^8 colony-forming units per milliliter (CFUs/mL).
(§3) The culture was then diluted to approximately 1×10^6 CFUs/mL in autoclaved MHB (BBL® catalog number 11443) to produce the parent inoculum. A sample of the parent inoculating culture was diluted in 3 mM phosphate buffer (pH 7.2) through a series of 1:10 dilutions and the 10^-4 and 10^-5 dilutions were plated, incubated overnight at 35°-37° C., and counted the next day to verify inoculum density. Microtiter plates (Corning manufacturer number 2585096) were prepared with the use of a Beckman Biomek® 1000 automated laboratory workstation in combination with manual techniques. The microtiter plate was filled with diluent broth using the Biomek® 1000 instrument. Peptide stock solution was manually added to the top drug well of the microtiter plate using a Rainin Pipetman®, Model P-200. The peptide was serially diluted in twofold dilutions using the Biomek® 1000 instrument. One hundred microliters of the standardized bacterial inoculum was added to every well of the microtiter plates (except the blanks) using an Eppendorf Repeater® Model 4780 pipet equipped with an Eppendorf 5 mL combitip (catalog number 22 26 130-4). All peptides were tested in duplicate. In addition to the test peptide, three standard peptides (Magainin 2, MSI-63, and MSI-98) and a non-treated growth control were included to validate the assay. The final concentrations of peptide solution in the microtiter wells ranged from 0.25 ug/mL to 256 ug/mL. The final concentration of bacteria in the microtiter wells was 1-5×10^5 CFUs/mL. The final solution volume in each well was 200 uL. The microtiter plates were incubated overnight (16-20 hours) at 35°-37° C. after preparation in a Precision mechanical convection oven incubator Model 30M.
(§4) This value was determined using the unaided eye. In addition, for a permanent record, the absorbance at 630 nm was read on a Dynatech MR5000 Microplate Reader, Version 2.7, and a printed record was generated on an Epson LX800 dot-matrix printer.

[3] = test system: Pseudomonas aeruginosa ATCC 27853; test: as above; assay type: cell-based; conditions: lowest concentration completely inhibiting growth; MHB, 16-20 hours, 35-37 C; tested in duplicate
Description: as §1, §2, §3, §4

[4] = test system: Staphylococcus aureus ATCC 29213; test: as above; assay type: cell-based; conditions: lowest concentration completely inhibiting growth; MHB, 16-20 hours, 35-37 C; tested in duplicate
Description: as §1, §2, §3, §4

[5] = test system: E. coli ATCC strain 25922; test: Bacterial growth inhibition assay, aliquots spotted onto a bacterial lawn; assay type: cell-based, Escherichia coli; conditions: purified recombinant peptide at 0.4 ug/mL; half-strength trypticase soy broth agar with 50 mM sodium fluoride
Description: Small aliquots of recombinant MSI-556 and other HPLC fractions from the CNBr digest of MBP-MSI-556 fusion protein were spotted onto a lawn of E. coli ATCC strain 25922 grown on a half-strength trypticase soy broth agar plate containing 50 mM sodium fluoride.

Substance | Bioactivity in antimicrobial susceptibility assay ([1]; HPLC-purified recombinant peptide, without reformation of the two disulfide bridges) | Minimum Inhibitory Concentration, Test Organism: E. coli [2] [µg/mL] | Minimum Inhibitory Concentration, Test Organism: Pseudo. aeruginosa [3] [µg/mL] | Minimum Inhibitory Concentration, Test Organism: Staph. aureus [4] [µg/mL] | Bacterial lawn growth inhibition as judged visually [5] | Spectrum of antibacterial activity (summary of Table I) ([1]; unamidated peptides, conclusion from MIC values)
NH2 --RRWCFRVCYRGFCYRKCRG--OH (H-RRWCFRVCYRGFCYRKCRG-OH; cysteine pairing not given here) [Lim1] | bioactive |  |  |  |  | 
GIGKFLHSAKKFGKAFVGEIMNS [Native Magainin 2, reference compound] |  | 64 to 128 | 256 | 256 |  | 
NH2 --GIGKFLKKAKKFGKAGVKILKKG--OH [MSI-556] |  | 4 to 16 | 4 | 16 | significant antimicrobial activity | broadly active against both gram-negative and gram-positive human pathogenic bacteria
GIGKFLKKAKKFGKAFVKILKK-NH2 [MSI-78] |  | 8 | 4 to 8 | 8 to 16 |  | 
